Laboratory results from patent publication US20140363898A1, “METHOD FOR THE IDENTIFICATION OF BETA-SHEET AGGREGATED PROTEIN LIGANDS” (Hoffmann-La Roche Inc., priority 2011, published 2014).
pIC50: −log10 of the molar value.

How the values were obtained:
[1] = target: T1, aggregated Aβ40 (synthetic) (Homo sapiens, UniProt P05067); assay: Thiazine-red fluorescence displacement assay on aggregated Aβ40; conditions: displacement of Thiazin-red at the high affinity binding site; compound 0.3 nM to 10000 nM; 30 min room temperature; average of different experiments; read-out: aggr. Aβ40 IC50
T1 construct: Id; No. 4; host or cells: synthetic peptide
Procedure: (§1) Recombinant human-microtubule associated protein Tau purified from E. coli is aggregated at a concentration of 5 μM with Arachidonic Acid (100 μM) in Tris 10 mM pH8, 24h at 37° C. Synthetic Aβ40 is aggregated with Arachidonic Acid (100 μM) in Tris 10 mM pH8, for three days at 37° C., under shaking at 150 rpm. […] In parallel, auto fluorescence of the compound is measured together with the aggregated proteins, but without Thiazin-red. As negative control, ligand and aggregated protein is used and as positive control, Thiazin-red, reference compound with known activity and aggregated protein is used. Assay is performed in Perkin Elmer OptiPlate 384, black, 45 ul assay volume, assay buffer is DPBS no CaCl2 no MgCl2 (GIBCO N. 14020). Tested compounds are diluted in DMSO and 2 μl is added to the assay (5% DMSO final). Assay is started by the addition of the aggregated protein (competitive condition). Plates are shortly shacked (1 min with Sterico variomag teleshake) and incubated for 30 min at room temperature. Measurement are done with En:Vision (Perkin Elmer), at Excitation 531 nm/Emission 595 nm.

[2] = target: T2, aggregated Tau (recombinant human microtubule associated protein Tau) (Homo sapiens, UniProt P10636); assay: Thiazine-red fluorescence displacement assay on aggregated tau; conditions: displacement of Thiazin-red at the high affinity binding site; compound 0.3 nM to 10000 nM; 30 min room temperature; average of different experiments; read-out: aggr. TAU IC50
T2 construct: made in house; host or cells: E. coli
Procedure: as §1

[3] = target: T3, aggregated alpha-synuclein (human recombinant) (Homo sapiens, UniProt P37840); assay: Thiazine-red fluorescence displacement assay on aggregated alpha-synuclein; conditions: displacement of Thiazin-red at the high affinity binding site; compound 0.3 nM to 10000 nM; 30 min room temperature; average of different experiments; read-out: aggr. α-syn IC50
T3 construct: made in house; host or cells: E. coli
Procedure: Human recombinant-Alpha-synuclein-purified from E. coli is aggregated with Arachidonic Acid (100 μM) in Tris 10 mM pH 8, for 5 days at 37° C., under shaking at 150 rpm.
Thiazin-red will be added at the concentration corresponding to the Kd to the respective aggregated protein binding site, to induce a fluorescent signal that can be inhibited by the addition of a displacer compound
In parallel, auto fluorescence of the compound is measured together with the aggregated proteins, but without Thiazin-red. As negative control, ligand and aggregated protein is used and as positive control, Thiazin-red, reference compound with known activity and aggregated protein is used.
Assay is performed in Perkin Elmer OptiPlate 384, black, 45 ul assay volume, assay buffer is DPBS no CaCl2 no MgCl2 (GIBCO N. 14020). Tested compounds are diluted in DMSO and 2 μl is added to the assay (5% DMSO final). Assay is started by the addition of the aggregated protein (competitive condition). Plates are shortly shacked (1 min with Sterico variomag teleshake) and incubated for 30 min at room temperature. Measurement are done with En:Vision (Perkin Elmer), at Excitation 531 nm/Emission 595 nm.

T2 sequence (P10636 1-441 isoform P10636-8): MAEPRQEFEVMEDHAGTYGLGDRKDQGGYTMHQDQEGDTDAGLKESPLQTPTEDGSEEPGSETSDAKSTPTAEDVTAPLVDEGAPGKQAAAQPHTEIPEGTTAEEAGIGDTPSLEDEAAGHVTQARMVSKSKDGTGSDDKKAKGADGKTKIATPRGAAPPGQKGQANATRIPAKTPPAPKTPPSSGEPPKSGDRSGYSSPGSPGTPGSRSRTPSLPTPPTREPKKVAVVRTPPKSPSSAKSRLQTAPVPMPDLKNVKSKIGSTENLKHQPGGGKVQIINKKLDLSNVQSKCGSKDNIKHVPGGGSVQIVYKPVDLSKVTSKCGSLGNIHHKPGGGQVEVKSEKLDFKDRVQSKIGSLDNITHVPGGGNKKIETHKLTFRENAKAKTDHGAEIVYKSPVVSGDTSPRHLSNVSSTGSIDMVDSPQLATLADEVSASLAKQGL
T1 sequence (P05067 672-711): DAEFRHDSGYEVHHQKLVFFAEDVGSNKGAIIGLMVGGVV

Compound | pIC50 [1] | pIC50 [2] | pIC50 [3]
CNc1ccc(-c2nc3ccc(O)cc3s2)cn1 [AZD2184] | < 5.00 | 5.01 | < 5.00
CC(=C(C#N)C#N)c1ccc2cc(N(C)CCF)ccc2c1 [FDDNP] | 5.83 | 5.79 | 5.93
CN(C)c1ccc(-c2cn3cc(I)ccc3n2)cc1 [IMPY] |  | 5.57 | 5.24
CNc1ccc(-c2nc3ccc(O)cc3s2)cc1 [PIB] |  | 5.49 | 5.15

More lines, now with the values ahead:

pIC50 [1] | pIC50 [2] | pIC50 [3] | Compound
< 5.00 | < 5.00 | < 5.00 | CNc1ccc(-c2ccc3ccccc3n2)cc1 [BF-158]
7.11 | 7.74 | 7.44 | O=C(O)c1cc(/C=C/c2ccc(/C=C/c3ccc(O)c(C(=O)O)c3)c(Br)c2)ccc1O [BSB]
7.87 | 8.27 | 8.36 | Nc1c(/N=N/c2ccc(-c3ccc(/N=N/c4cc(S(=O)(=O)O)c5ccccc5c4N)cc3)cc2)cc(S(=O)(=O)O)c2ccccc12 [Congo Red]
5.89 | 5.81 | 5.77 | CN(C)c1ccc(C(=C2C=CC(=[N+](C)C)C=C2)c2ccc(N(C)C)cc2)cc1 [Crystal Violet]
7.05 | 9.00 | 8.12 | Cc1cc(-c2ccc(/N=N/c3ccc4c(S(=O)(=O)O)cc(S(=O)(=O)O)c(N)c4c3O)c(C)c2)ccc1/N=N/c1ccc2c(S(=O)(=O)O)cc(S(=O)(=O)O)c(N)c2c1O [Evans Blue]
6.51 | 6.31 | 6.62 | COc1cc(/C=C/c2ccc(O)cc2)ccc1/C=C/c1ccc(O)cc1 [MeXO4]
